{
  "source": "ChEMBL document CHEMBL1142085",
  "about": "“Once-weekly micafungin therapy is as effective as daily therapy for disseminated candidiasis in mice with persistent neutropenia” (Antimicrob Agents Chemother, 2007)",
  "key": {"[1]": {"experiment": "Serum clearance in Candida glabrata infected neutropenic Swiss Webster mouse", "format": "ADME, organism-based"}, "[2]": {"test_system": "Nakaseomyces glabratus", "experiment": "Reduction of lung fungal burden in Candida glabrata infected ip dosed neutropenic Swiss Webster mouse", "format": "functional"}, "[3]": {"test_system": "Nakaseomyces glabratus", "experiment": "Reduction of kidney fungal burden in Candida glabrata infected ip dosed neutropenic Swiss Webster mouse", "format": "functional"}, "[4]": {"test_system": "Nakaseomyces glabratus", "experiment": "Reduction of spleen fungal burden in Candida glabrata infected ip dosed neutropenic Swiss Webster mouse", "format": "functional"}, "[5]": {"test_system": "Nakaseomyces glabratus", "experiment": "Reduction of kidney fungal burden in Candida glabrata infected neutropenic Swiss Webster mouse at >=50 mg/kg, ip after 7 days", "format": "functional, organism-based"}, "[6]": {"test_system": "Nakaseomyces glabratus", "experiment": "Antifungal activity against Candida glabrata isolated from candidemia patient after 24 hrs", "format": "functional"}, "[7]": {"test_system": "Nakaseomyces glabratus", "experiment": "Reduction of fungal burden in Candida glabrata infected neutropenic Swiss Webster mouse at 100 mg/kg, ip after 7 days", "format": "functional, organism-based", "parameters": "dose 100 mg/kg"}, "[8]": {"test_system": "Nakaseomyces glabratus", "experiment": "Antifungal activity against Candida glabrata isolated from candidemia patient after 48 hrs", "format": "functional"}},
  "note": "Calls of active or inactive are those of the source. No cut-off for these calls is given here. *1 amine or outer side, *2 acyl side, *3 side chain or, on linkers, in order; H or OH if unused. Where a SMILES comes first, the peptide text is derived from it. Bridges are numbered along the chain shown (N, C = ends). [ ]: non-standard residue; d: D form. The star is where a group is joined. hTyr(3S-OH,4S-OH,3'-OSO3H) = N[C@H](C(=O)O)[C@H](O)[C@@H](O)c1ccc(O)c(OS(=O)(=O)O)c1; Orn(4R-OH,5R-OH) = O=C([C@H](C[C@@H](O)[C@@H](O)N[*:3])N[*:1])[*:2]; Pro(3S-OH,4S-Me) = C[C@H]1CN[C@H](C(=O)O)[C@H]1O; X1 = CCCCCOc1ccc(-c2cc(-c3ccc(C(=O)*)cc3)no2)cc1; Gln(3R-OH) = NC(=O)C[C@@H](O)[C@H](N)C(=O)O; Hyp = O=C(O)[C@@H]1C[C@@H](O)CN1",
  "data": [
    {"smiles": "CCCCCOc1ccc(-c2cc(-c3ccc(C(=O)N[C@H]4C[C@@H](O)[C@@H](O)NC(=O)[C@@H]5[C@@H](O)[C@@H](C)CN5C(=O)[C@H]([C@H](O)CC(N)=O)NC(=O)[C@H]([C@H](O)[C@@H](O)c5ccc(O)c(OS(=O)(=O)O)c5)NC(=O)[C@@H]5C[C@@H](O)CN5C(=O)[C@H]([C@@H](C)O)NC4=O)cc3)no2)cc1", "note": "[MICAFUNGIN] (X1-[Orn(4R-OH,5R-OH)]T[Hyp][hTyr(3S-OH,4S-OH,3'-OSO3H)][Gln(3R-OH)][Pro(3S-OH,4S-Me)]; lactam 1-C)", "values": [
      {"measurement": "clearance", "setting": "[1]", "result": 0.0133, "unit": "mL/min"},
      {"measurement": "ED50", "setting": "[2]", "result": 17.3, "unit": "mg/kg"},
      {"measurement": "ED50", "setting": "[3]", "result": 14.7, "unit": "mg/kg"},
      {"measurement": "ED50", "setting": "[4]", "result": 7.38, "unit": "mg/kg"},
      {"measurement": "Activity", "setting": "[5]", "result": "Active"},
      {"measurement": "MIC", "setting": "[6]", "result": 0.02, "unit": "µg/mL"},
      {"measurement": "Activity", "setting": "[7]", "result": "Active"},
      {"measurement": "MIC", "setting": "[8]", "result": 0.02, "unit": "µg/mL"}
    ]}
  ]
}
